Structures can show the parent of a compound that is named as a salt. Where two headings read alike, the source gives them in different places.
What was measured:
[1] = target: GTP-KRAS-G12D:SOS1 (Homo sapiens (Human), UniProt P01116, G12D); experiment: GTP-KRAS-G12D:SOS1 binding inhibition
Protocol: (§1) The IC50 of the compounds was fitted using a nonlinear regression equation with GraphPad Prism 8. The results are presented in Table 2: • Negative control: DMSO • Positive control: 100 μM BI-2852
(§2) The following nonlinear fitting formula was used to obtain the IC50 (half-maximal inhibitory concentration) of the compounds:
(§3) [formula] • X: logarithm of the compound concentration • Y: 665/615 Ratio

[2] = target: GTP-KRAS-G12D:CRAF (Homo sapiens (Human), UniProt P01116, G12D); experiment: GTP-KRAS-G12D:CRAF binding inhibition
Protocol: The IC50 of the compounds was fitted using a nonlinear regression equation with GraphPad Prism 8. The results are presented in Table 2: • Negative control: DMSO • Positive control: 100 μM BI-2852 The following nonlinear fitting formula was used to obtain the IC50 (half-maximal inhibitory concentration) of the compounds: [formula] • X: logarithm of the compound concentration • Y: 665/615 Ratio

[3] = target: GTP-KRAS-WT:SOS1 (Homo sapiens (Human), UniProt P01116); experiment: KRAS_WT and SOS1 binding inhibition (KRAS-WT/SOS1 binding kit, 665/615 ratio); conditions: GTP 10 μM
From the text: To detect the inhibitory capability of small molecule compounds on the binding activity between KRAS_WT and SOS1 using a drug screening system based on the binding of KRAS_WT and SOS1 interaction.
a) BI-2852 was used as a positive control, with its stock solution as the first dilution point, followed by a 3-fold dilution, making a total of 10+0 dilutions. Similarly, the first dilution point of the test compounds was also their respective stock solutions, followed by a 3-fold dilution, making a total of 11+0 dilutions. Using Echo, 0.2 μL of the gradient-diluted compound solutions were transferred into a 384-well plate, with each compound tested in duplicate. The final DMSO concentration was 1%. The plate was centrifuged at 1000 rpm for 1 minute. The final concentrations of the positive controls were 100, 33.33, 11.11, 3.70, 1.23, 0.412, 0.137, 0.046, 0.015, 0.005, and 0 μM. The final concentrations of the test compounds were […], 0.01, and 0 μM.
b) KRAS_WT from the kit was prepared with GTP at a final concentration of 10 μM in the dilution buffer, and 5 μL was transferred into the 384-well reaction plate. The plate was centrifuged at 1000 rpm for 1 minute.
c) Subsequently, 5 μL of the SOS1 mixture was transferred into the 384-well reaction plate. The plate was centrifuged at 1000 rpm for 1 minute and incubated at 25° C. for 15 minutes.
d) 10 μL of the detection mixture was transferred into the 384-well reaction plate. The plate was centrifuged at 1000 rpm for 1 minute and incubated overnight at 4° C.
e) The […] and emission wavelength at 615 nm were read using an Envision multimode plate reader. The 665/615 ratio signal intensity was used to characterize the enzyme activity.
as §1, §2, §3

[4] = system: Panc-1 (KRASG12D pancreatic cancer cell) CDX model; type: in vivo, Nu/Nu nude mice
Protocol: Female Nu/Nu nude mice, approximately 8 to 10 weeks old, (Beijing Vital River Laboratory Animal Technology Co., Ltd) were used in these studies. The animals were maintained in individually ventilated cages with a 12-hour light/dark cycle. Food and water were available ad libitum. Panc-1 tumor cells were maintained in vitro at 37° C. in an atmosphere containing 5% CO2 using DMED medium supplemented with 10% fetal bovine serum. Prior to tumor inoculation, cells in the exponential growth phase were harvested and quantified using a cell counter. Panc-1 tumor cells (1×10^7) in 0.2 mL PBS were subcutaneously inoculated into the right flank of each mouse. Randomization was initiated when the average tumor size reached approximately 154.21 mm^3. A total of 9 tumor-bearing mice were enrolled in the study, and these mice were allocated into […] (3 mice per group). Additionally, 3 non-tumor-bearing mice were assigned to the untreated group.
The animals were treated […] via intravenous injection (I.V.) with either a vehicle (10% HP-β-CD) or the vehicle containing the indicated dose of the compound, for approximately 28 days (QD×28 I.V.), or until ethical endpoints were reached (BWL>20%; median tumor volume (MTV)>2000 mm^3; individual TV>3000 mm^3; clinical signs of discomfort). […]
Tumor volume was measured in two dimensions using calipers twice weekly after randomization, and the volume was calculated in mm^3 using the formula: V=(L×W×W)×0.5, where V is the tumor volume, L is the tumor length (the longest tumor dimension), and W is the tumor width (the longest tumor dimension perpendicular to L). […] Tumor growth inhibition (TGI %) was calculated using the formula: TGI %=[1−(Ti/Ci)]×100, where Ti is the median tumor volume in the treatment group on the measurement day, and Ci is the median tumor volume in the control group on the measurement day.

Compound	IC50 [1] [nM]	IC50 [2] [nM]	IC50 [3] [nM]	TGI (%) Day 28 ([4]; Panc-1 KRASG12D in Nu/Nu, 10 mg/kg QD IV, Day 28) [%]	BWL (%) Day 14 ([4]; mouse, in vivo, iv, 10 mg/kg) [%]	BWL (%) Day 28 ([4]; mouse, in vivo, iv, 10 mg/kg) [%]	IC50 ([1]; dihydrochloride) [nM]	IC50 ([2]; dihydrochloride) [nM]	IC50 ([3]; dihydrochloride) [nM]
CCc1cccc2cc(O)cc(-c3c(F)c4c5c(nc(OC[C@@]67CCCN6C[C@H](F)C7)nc5c3F)N3CC5CCC(N5)C3CO4)c12 (single isomer, unassigned) [Compound 5a, (S or R)-4-((5aS,6S,9R)-1,3-Difluoro-13-(((2R,7aS)-2-fluorotetrahydro-1H-pyrrolizin-7a(5H)-yl)methoxy)-5a,6,7,8,9,10-hexahydro-5H-6,9-epiminoazepino[2′,1′:3,4][1,4]oxazepino[5,6,7-de]quinazolin-2-yl)-5-ethylnaphthalen-2-ol dihydrochloride]	14.5	5.81	11.4	96	−0.77	−1.58	–	–	–
CC1CC2(CCc3c(nc(OC[C@@]45CCCN4C[C@H](F)C5)nc3N3C[C@H]4CC[C@@H](C3)N4)C2)c2cc(O)cc(Cl)c21 (single isomer, unassigned) [Compound 7ab, (1R or 1S, 3S or 3R)-4′-((1R,5S)-3,8-diazabicyclo[3.2.1]octan-3-yl)-4-chloro-2′-(((2R,7aS)-2-fluorotetrahydro-1H-pyrrolizin-7a(5H)-yl)methoxy)-3-methyl-2,3,5′,8′-tetrahydro-6′H-spiro[indene-1,7′-quinazolin]-6-ol dihydrochloride]	–	–	–	–	–	–	17.4	84.8	582
Oc1cc(Cl)c2c(c1)C1(CC2)CCc2c(nc(OC[C@@]34CCCN3C[C@H](F)C4)nc2N2CC3CCC(C2)N3)C1F (single isomer, unassigned) [Compound 8a, (1S or 1R,8'S or 8′R)-4′-((1R,5S)-3,8-Diazabicyclo[3.2.1]octan-3-yl)-4-chloro-8′-fluoro-2′-(((2R,7aS)-2-fluorotetrahydro-1H-pyrrolizin-7a(5H)-yl)methoxy)-2,3,5′,8′-tetrahydro-6′H-spiro[indene-1,7′-quinazolin]-6-ol dihydrochloride]	13.5	19.5	61.2	–	–	–	–	–	–
Oc1cc(Cl)c2c(c1)C1(CC2)CCc2c(nc(OC[C@@]34CCCN3C[C@H](F)C4)nc2N2CC3CCC(C2)N3)C1F (single isomer, unassigned) [Compound 8d, (1R or 1S, 8'S or 8′R)-4′-((1R,5S)-3,8-diazabicyclo[3.2.1]octan-3-yl)-4-chloro-8′-fluoro-2′-(((2R,7aS)-2-fluorotetrahydro-1H-pyrrolizin-7a(5H)-yl)methoxy)-2,3,5′,8′-tetrahydro-6′H-spiro[indene-1,7′-quinazolin]-6-ol dihydrochloride]	115	491	4750	–	–	–	–	–	–
Oc1cc(Cl)c2c(c1)C1(CC2)CCc2c(N3CC4CCC(C3)N4)nc(OC[C@@]34CCCN3C[C@H](F)C4)nc2C1(F)F (single isomer, unassigned) [Compound 9a, (S or R)-4′-((1R,5S)-3,8-Diazabicyclo[3.2.1]octan-3-yl)-4-chloro-8′,8′-difluoro-2′-(((2R,7aS)-2-fluorotetrahydro-1H-pyrrolizin-7a(5H)-yl)methoxy)-2,3,5′,8′-tetrahydro-6′H-spiro[indene-1,7′-quinazolin]-6-ol dihydrochloride]	15.2	46.8	559	–	–	–	–	–	–
Oc1cc(-c2cc3c4c(nc(OC[C@@]56CCCN5C[C@H](F)C6)nc4c2F)N2C[C@@H]4CC[C@@H](N4)[C@H]2CO3)c2ccccc2c1 [Compound 3, dihydrochloride]	11.9	12.3	79.6	–	–	–	–	–	–
(R or S)-4-((5aS,6R,9S)-1,3-difluoro-13-((2R,7aS)-2-fluorotetrahydro-1H-pyrrolizin-7a(5H)-ylmethoxy)-5a,6,7,8,9,10-hexahydro-5H-6,9-epiminoazepino[2′,1′:3,4][1,4]oxazepino[5,6,7-de]quinazolin-2-yl)-5-ethynyl-6-fluoronaphthalen-2-ol [4b′]	18.3	8.22	5.6	–	–	–	–	–	–

From US20250197424A1, “QUINOLINE COMPOUND AND USE THEREOF” (SHANGHAI PHARMACEUTICALS HOLDING CO., LTD., priority 2022, published 2025)
